These molecules were tested against PDHK1 (Homo sapiens (Human), UniProt Q15118) (assay: PDHK1 enzymatic assay (AlphaScreen, phosphorylation of PDHE1 S293)). Conditions: 1 nM PDHK1, 25 nM PDHE1, 20 μM ATP, 30° C. for 45 minutes.
Format: biochemical
Excerpt: Pyruvate dehydrogenase complex (PDHc) is an enzyme that catalyzes the reaction of pyruvate and a lipoamide to give the acetylated dihydrolipoamide and carbon dioxide. PDHc has three subunits E1, E2 and E3. E1 has 3 serine phosphorylation sites S293, S232, S300. If E1 was phosphorylated, PDH will be inactivated. PDHK can phosphorylate PDH protein (also named PDHE1) in PDH complex (PDC) to inactivate it.

Chain of PDHK1 (Q15118 29-436): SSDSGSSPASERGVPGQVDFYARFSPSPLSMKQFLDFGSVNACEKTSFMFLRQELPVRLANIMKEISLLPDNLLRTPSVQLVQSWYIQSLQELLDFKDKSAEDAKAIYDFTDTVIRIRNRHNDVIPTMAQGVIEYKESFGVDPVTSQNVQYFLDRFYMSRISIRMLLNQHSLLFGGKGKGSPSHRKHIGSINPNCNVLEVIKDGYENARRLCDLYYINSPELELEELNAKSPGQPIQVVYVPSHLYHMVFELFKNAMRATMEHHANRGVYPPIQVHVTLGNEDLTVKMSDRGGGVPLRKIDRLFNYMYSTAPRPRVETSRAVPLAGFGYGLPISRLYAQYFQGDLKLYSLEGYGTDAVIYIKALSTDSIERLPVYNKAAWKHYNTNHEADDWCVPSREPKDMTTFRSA

Point of comparison: `CCNc1cc(F)cc2c1NC(=O)C2(C)N1CCC[C@@H](Nc2ccc(C#N)c(O)c2)C1` (stereo partly drawn) [Example 9, 4-[[(3R)-1-[7-(ethylamino)-5-fluoro-3-methyl-2-oxo-indolin-3-yl]-3-piperidyl]amino]-2-hydroxy-benzonitrile], “Enzymatic IC50 against PDHK1” value 0.015 mg/L. Against it:
- C=CS(=O)(=O)c1ccc(N[C@@H]2CCCN(C3(C)C(=O)Nc4c(NCC)cc(F)cc43)C2)cc1 (stereo partly drawn) [Example 34, 7-(ethylamino)-5-fluoro-3-methyl-3-[(3R)-3-(4-vinylsulfonylanilino)-1-piperidyl]indolin-2-one] — 2.1-fold higher, 0.032 mg/L
- CCNc1cc(F)cc2c1NC(=O)C2(C)N1CCC[C@@H](Nc2ccc(OS(=O)(=O)F)cc2)C1 (stereo partly drawn) [Example 32, 7-(ethylamino)-5-fluoro-3-methyl-2-oxo-3-[(3R)-3-(4-fluorosulfonyloxyanilino)-1-piperidyl]indoline] — 9-fold higher, 0.135 mg/L

From patent US20240140933A1, “OXOINDOLINE COMPOUND FOR THE TREATMENT OF INFLAMMATORY DISEASES OR CANCER” (Hoffmann-La Roche Inc., priority 2021, published 2024)
